Data published in US20140018340A1, “Insulin Mimetic Active Comprising Oxodiperoxo Vanadates and a Pharmaceutical Composition Obtained Thereof” (priority 2011, published 2014).

How the values were obtained:
[1] = dose inducing insulin like activity, from cited reference; cited from earlier work
[2] = test system: Glut4 in 3T3-L1 adipocytes; test: In vitro assay of Glut 4 translocation (GFP-Glut4 transfected cells); format: cell-based; settings: GFP-Glut4 transfected 3T3-L1 adipocytes

Row | Substance | Dose in-vitro [1] [mM] | Glut4 translocation from cytosol to membrane [2]
1 | pervanadate | 1 | –
2 | insulin: the hormone which regulates the body's glucose level and metabolism | – | gets translocated to the membrane on addition of insulin
